Results on 3 molecules are retold here after patent publication US11497747B2, “Compositions and methods for treating lung injuries associated with SARS-CoV-2 infections” (priority 2020, dated 2022).

The half-life is the time in which the quantity being followed falls by half.

Data set [1] deals with MAP3K2/MAP3K3. The settings on record: MEK5 substrate; cited from earlier work.
Data set [2] has as its system acute lung injury (ALI). As to the kind of experiment: mouse ALI/ARDS models (acid-induced direct insult, LPS-induced indirect insult). The data set is classed as in vivo. The settings on record: dependent on MAP3K2/3 and ROS production.
Data set [3] concerns coronavirus (Murine Hepatitis Virus Strain 1, MHV-1) induced mouse lung injury model. In words: survival and body weight loss in mouse coronavirus induced acute lung injury model. The settings on record: 3 mg/kgbw retro-orbital once daily for 5 days since 24 hr after virus inoculation.
Another data set relates to neutrophils. The settings on record: cited from earlier work.
For data set [4], the system named is coronavirus (Murine Hepatitis Virus Strain 1, MHV-1) induced mouse lung injury model. In words: pulmonary permeability (FITC-albumin in BAL) in mouse coronavirus induced acute lung injury model.
In data set [5] the test system is MAP3K2/MAP3K3. The settings on record: p47phox substrate; cited from earlier work.
For data set [6] the following is noted: cited from earlier work.
A further data set relates to patients. The settings on record: cited from earlier work.
For data set [7] the following is noted: in vivo; cited from earlier work.
The subject of data set [8] is MAP3K2/MAP3K3. As to the kind of experiment: MAP3K2/MAP3K3-mediated phosphorylation of p47phox. It is filed as biochemical.
For data set [9], the system named is acute lung injury (ALI). The settings on record: cited from earlier work.

Where only a bound is given, the exact number is not on record here.

Take “5-({4-[(2,3-Dimethyl-2H-indazol-6-yl)methylamino]pyrimidin-2-yl}amino)-2-methylbenzenesulfonamide [pazopanib]”: the “inhibition of other substrates of MAP3K2/MAP3K3 such as MEK5” value in the data set with MAP3K2/MAP3K3 [1] was “μM levels”. Besides, in the data set on acute lung injury (ALI) [2], the “ameliorating ALI in the two mouse ALI/ARDS models” value is reported as “effective in ameliorating ALI”. Further, the survival rate entry in data set [3] (FIG. 6) was “does not affect”. In addition, the body weight loss result in data set [3] (FIG. 7) was “does not affect”. Moreover, the ROS levels entry with neutrophils is “elevates ROS levels”. Also, the pulmonary permeability result in [4] (2 doses at 3 mg/kgbw retro-orbital, 24 and 33 h after 6000 PFU MHV-1, FIG. 2) is listed as “significantly reduce”; in [4] (3 doses at 3 mg/kgbw retro-orbital, 6, 21 and 32 h after 5000 PFU MHV-1, FIG. 1), “significantly reduce”; in data set [4] (one dose 3 mg/kgbw retro-orbital at 24 hr after virus inoculation, FIG. 3) it was “significantly reduce”; in data set [4] (one dose 3 mg/kgbw retro-orbital at 48 hr after virus inoculation, FIG. 4) it was “significantly reduce”; in data set [4] (one dose 3 mg/kgbw retro-orbital at 72 hr after virus inoculation, FIG. 5) it was “negligible effect”. Also, the “inhibition of MAP3K2/MAP3K3-mediated phosphorylation of p47phox” value in the data set with MAP3K2/MAP3K3 [5] was “low nM levels”. For the same molecule, in [6], the protein binding is above 99.5%. Also, in the data set on patients (clinical trials), the “ILD/pneumonitis reported in patients in the clinical trials” value was 0.1 % of patients. Besides, in the data set with patients (randomized RCC trial), the “patients who developed a pneumothorax” value was “[t]wo of 290”. Also, in the data set with patients (randomized STS trial (8/240)), the pneumothorax occurrence is 3%. In data set [7], the bioavailability is given as 14-21%. Moreover, the half-life in data set [7] was 30.9 to 31.9 h. Further, in the data set on MAP3K2/MAP3K3 [8], the “affinity as p47phox substrate-specific inhibitor for MAP3K2 and 3” value was “low nanomolar”.

For `Cc1ccc(NC(=O)c2ccc(CN3CCN(C)CC3)cc2)cc1Nc1nccc(-c2cccnc2)n1` [imatinib], in the data set on MAP3K2/MAP3K3 [5], the “inhibition of MAP3K2/MAP3K3-mediated phosphorylation of p47phox” value is on record as “do not inhibit”.

For the molecule `COC(=O)c1ccc2c(c1)NC(=O)/C2=C(\Nc1ccc(N(C)C(=O)CN2CCN(C)CC2)cc1)c1ccccc1` [nintedanib, Methyl (3Z)-3-{[(4-{methyl[(4-methylpiperazin-1-yl)acetyl]amino}phenyl)amino](phenyl)methylidene}-2-oxo-2,3-dihydro-1H-indole-6-carboxylate], the “inhibition of MAP3K2/MAP3K3-mediated phosphorylation of p47phox” value with MAP3K2/MAP3K3 [5] is on record as “also inhibits”. Besides, the “reduction of ALI in mouse models” value in the data set on acute lung injury (ALI) [9] is reported as “has been shown to reduce ALI”.
